Data as given in ChEMBL document CHEMBL1914288, “Design and synthesis of biotinylated DHMEQ for direct identification of its target NF-κB components” (Bioorg Med Chem Lett, 2011).
The source made the active and inactive calls. The rule behind the calls is not given here.

Assays:
[1] = test system: RAW264.7; assay: Inhibition of LPS-induced nitric oxide production in mouse RAW264.7 cells at 100 ug/mL preincubated for 1 hr prior LPS stimulation measured after 24 hrs by Griess reaction relative to (-)-DHMEQ; format: functional, cell-based
[2] = biological target: Transcription factor p65 (Homo sapiens) (UniProt Q04206); assay: Binding affinity to recombinant NF-kappaB transcription factor p65 subunit at 4 equiv mol concentration after 1 hr by MALDI-TOF MS analysis
[3] = test system: Transcription factor p65 (Homo sapiens), Q04206 [C38S]; assay: Binding affinity to recombinant NF-kappaB transcription factor p65 subunit C38S mutant at 4 equiv mol concentration after 1 hr by MALDI-TOF MS analysis
[4] = Stability of the compound in DMSO for 4 weeks; format: physicochemical; details: 672 h
[5] = test system: RAW264.7; assay: Inhibition of LPS-induced nitric oxide production in mouse RAW264.7 cells preincubated for 1 hr prior LPS stimulation measured after 24 hrs by Griess reaction; format: functional, cell-based
[6] = test system: RAW264.7; assay: Cytotoxicity against mouse RAW264.7 cells at 10 ug/mL after 24 hrs by MTT assay; format: cell-based; details: raw264.7, 24 h
[7] = test system: RAW264.7; assay: Inhibition of NF-kappaB activation in LPS-stimulated mouse RAW264.7 cells assessed as DNA binding using 32P-labeled oligonucleotide with the high affinity site 5'-AGTTGAGGGGACTTTCCCAGGC-3' at 3 ug/mL after 30 mins by EMSA; format: cell-based
[8] = Stability of the compound under neutral conditions; format: physicochemical

Transcription factor p65 (Homo sapiens), Q04206 [C38S], sequence (Q04206 whole entry C38S): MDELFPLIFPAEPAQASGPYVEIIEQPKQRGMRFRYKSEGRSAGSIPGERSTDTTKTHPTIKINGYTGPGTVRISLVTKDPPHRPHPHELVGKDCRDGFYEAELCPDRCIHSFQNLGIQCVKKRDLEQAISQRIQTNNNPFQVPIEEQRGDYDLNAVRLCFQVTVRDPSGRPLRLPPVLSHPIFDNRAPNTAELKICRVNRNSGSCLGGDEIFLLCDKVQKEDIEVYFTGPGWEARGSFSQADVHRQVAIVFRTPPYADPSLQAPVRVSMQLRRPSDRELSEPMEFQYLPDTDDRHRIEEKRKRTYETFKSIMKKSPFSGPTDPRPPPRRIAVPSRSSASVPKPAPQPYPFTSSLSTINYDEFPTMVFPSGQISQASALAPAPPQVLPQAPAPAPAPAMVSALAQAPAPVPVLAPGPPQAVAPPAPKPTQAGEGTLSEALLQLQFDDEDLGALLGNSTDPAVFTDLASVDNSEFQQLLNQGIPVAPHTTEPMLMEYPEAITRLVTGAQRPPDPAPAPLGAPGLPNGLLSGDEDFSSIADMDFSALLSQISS
Transcription factor p65 (Homo sapiens), sequence (Q04206 whole entry): as the sequence (Q04206 whole entry C38S) above, with S38C counted along it

In the case of `O=C(/C=C/COc1ccccc1C(=O)NC1=CC(=O)[C@H]2O[C@H]2[C@H]1O)NCCOCCOCCNC(=O)CCCC[C@@H]1SC[C@@H]2NC(=O)N[C@@H]21` (mixture of isomers), the inhibition [1] is reported as “inactive”, the Activity [2] is reported as “Active” and the Activity [3] is reported as “inactive”. For the same compound, the Stability [4] was “Stable”.
With `C=CCOc1ccccc1C(=O)NC1=CC(=O)[C@H]2O[C@H]2[C@H]1O` (racemic) the inhibition [5] was “Dose-dependent effect”, the Activity [6] was “Non-toxic” and the inhibition [7] was “Active”.
In the case of `O=C(NC1=CC(=O)[C@H]2O[C@H]2[C@H]1O)c1ccccc1O` [DEHYDROXYMETHYLEPOXYQUINOMICIN], the Stability [8] is reported as “Stable”.
